Target: p97/VCP (Homo sapiens, UniProt P55072)
Assay: ATPase assay on purified human p97/VCP
Format: biochemical

p97/VCP, sequence (P55072 2-806): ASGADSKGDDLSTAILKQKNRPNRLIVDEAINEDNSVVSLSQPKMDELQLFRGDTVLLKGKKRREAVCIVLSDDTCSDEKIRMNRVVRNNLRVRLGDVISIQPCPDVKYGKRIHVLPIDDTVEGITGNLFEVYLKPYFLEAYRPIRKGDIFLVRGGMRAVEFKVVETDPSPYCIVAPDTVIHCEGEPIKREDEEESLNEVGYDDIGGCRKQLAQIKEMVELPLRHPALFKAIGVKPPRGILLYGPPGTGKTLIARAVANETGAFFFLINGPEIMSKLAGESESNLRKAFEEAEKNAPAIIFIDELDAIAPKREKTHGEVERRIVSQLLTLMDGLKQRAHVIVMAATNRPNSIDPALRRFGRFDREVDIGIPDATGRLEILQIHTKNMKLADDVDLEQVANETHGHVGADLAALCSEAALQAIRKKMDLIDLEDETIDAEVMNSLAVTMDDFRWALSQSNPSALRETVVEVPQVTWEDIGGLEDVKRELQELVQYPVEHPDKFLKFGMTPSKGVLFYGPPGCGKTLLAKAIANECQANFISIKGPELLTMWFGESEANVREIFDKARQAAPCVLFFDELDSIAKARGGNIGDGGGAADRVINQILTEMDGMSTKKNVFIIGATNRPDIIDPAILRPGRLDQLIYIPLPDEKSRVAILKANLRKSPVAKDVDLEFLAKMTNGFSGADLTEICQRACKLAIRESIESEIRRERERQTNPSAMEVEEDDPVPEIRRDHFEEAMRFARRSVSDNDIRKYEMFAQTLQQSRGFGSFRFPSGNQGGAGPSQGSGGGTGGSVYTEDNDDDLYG

IC50: 900 ± 110 nM
Structure (SMILES): NCCc1cn(-c2nc(NCc3ccccc3)c3ccccc3n2)c2ccccc12 [FQ393, 2-[3-(2-Aminoethyl)-1H-indol-1-yl]-N-benzylquinazolin-4-amine]

Reference: paper PMC7745420 (ACS Omega, 2020)
